Source: patent US20020068351A1, “Human brain phosphodiesterase” (SmithKline Beecham Corporation, priority 1994, published 2002)
Entries after “also recorded” stand apart in the source; their conditions may differ. Values belong to the compound of their own block, whether it stands above or below them.

Tests used:
hPDE IVB = hPDE IVB (Homo sapiens, UniProt Q07343); experiment: PDE assay: cAMP hydrolysis by recombinant hPDE IVB in yeast lysate supernatant
Experimental: PDE Assays and Inhibitor Studies—PDE activity was determined in 100,000×g supernatant fractions of yeast cell lysates. […] For studies in which the IC50s of various inhibitors were determined, compounds were present in the reaction mixture at concentrations that varied over three orders of magnitude. Reactions were conducted at 30° C. for 30 min.
Appropriate corrections were made for the changes in specific activity of the substrate. […] Statistical comparisons between one-site and two-site fits were conducted via F test.

[1] = system: PDE-deficient mutant cells expressing the human PDE IV; experiment: Yeast growth arrest assay in PDE-deficient cells expressing human PDE IV
Experimental: (§1) For heat shock, cells are replicated from the master plate onto two plates each containing the same medium as describe above, one of which is preheated to 55° C. for 1 hour. Cells transferred to the preheated plate are incubated at 55° C. for 5 minutes and then shifted to 30° C. For monitoring growth on acetate, the master plate is replicated to a plate containing the same medium except 2% potassium acetate instead of glucose. Growth is scored after five days at 5 days at 30° C.

wild-type yeast cells = experiment: Yeast control: killing of wild-type cells
Experimental: as §1

hPDE IVB, sequence (Q07343 1-564 isoform Q07343-2): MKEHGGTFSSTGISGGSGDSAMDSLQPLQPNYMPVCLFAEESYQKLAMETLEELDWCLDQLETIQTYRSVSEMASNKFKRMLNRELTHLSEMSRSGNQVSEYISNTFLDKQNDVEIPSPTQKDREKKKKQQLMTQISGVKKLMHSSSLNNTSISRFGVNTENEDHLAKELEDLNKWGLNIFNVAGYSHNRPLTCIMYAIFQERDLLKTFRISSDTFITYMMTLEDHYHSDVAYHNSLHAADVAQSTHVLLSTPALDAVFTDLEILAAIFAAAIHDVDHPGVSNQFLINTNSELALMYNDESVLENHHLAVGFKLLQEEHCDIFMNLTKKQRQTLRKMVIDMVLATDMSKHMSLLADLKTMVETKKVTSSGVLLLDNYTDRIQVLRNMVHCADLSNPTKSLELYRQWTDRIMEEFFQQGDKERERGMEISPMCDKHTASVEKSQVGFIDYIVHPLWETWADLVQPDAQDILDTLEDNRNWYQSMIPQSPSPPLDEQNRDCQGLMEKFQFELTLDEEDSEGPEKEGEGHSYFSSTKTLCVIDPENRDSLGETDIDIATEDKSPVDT

Km (hPDE IVB; substrate of hPDE IVB): > 10 mM
Structure (SMILES): Nc1nc2c(ncn2[C@@H]2O[C@@H]3COP(=O)(O)O[C@H]3[C@H]2O)c(=O)[nH]1 [cGMP]
hydrolysis of cGMP as substrate (hPDE IVB; hPDE IVB, substrate concentrations as great as 10 mM): very poor activity; also recorded: No detectable hydrolysis

Structure (SMILES): COc1ccc(C2CNC(=O)C2)cc1OC1CCCC1 (stereo not drawn) [rolipram]
cytotoxicity ([1]; under growth arrest conditions): cytotoxic
killing effect ([1]; under normal growth conditions): no killing effect
killing effect (wild-type yeast cells): no killing effect

IC50 (hPDE IVB): > 30 µM
Structure (SMILES): CN/C(=N\c1ccc(C2=NNC(=O)CC2C)cc1)NC#N (stereo not drawn) [siquazodan, siguazodan]
